In US20080207708A1, “Oxazole and Thiazole Compounds and Their Use in the Treatment of Pge2 Mediated Disorders” (GLAXO GROUP LIMITED, priority 2005, published 2008):
Where a name gives a salt, the structure may show the parent alone.

Molecular target: T1, EP1 receptors (Homo sapiens, UniProt P34995)
T1 sequence (P34995 1-402): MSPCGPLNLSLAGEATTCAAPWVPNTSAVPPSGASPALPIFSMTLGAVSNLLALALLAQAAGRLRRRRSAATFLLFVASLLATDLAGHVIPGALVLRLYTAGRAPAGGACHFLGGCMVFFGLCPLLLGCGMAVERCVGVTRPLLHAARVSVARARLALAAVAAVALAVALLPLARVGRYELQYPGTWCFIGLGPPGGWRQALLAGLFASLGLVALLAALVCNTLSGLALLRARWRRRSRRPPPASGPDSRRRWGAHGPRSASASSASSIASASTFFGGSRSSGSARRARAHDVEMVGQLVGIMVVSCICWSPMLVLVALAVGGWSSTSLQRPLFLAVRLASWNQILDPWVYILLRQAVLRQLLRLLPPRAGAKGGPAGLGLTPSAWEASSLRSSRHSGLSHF
Assay: Binding assay for the human prostanoid EP1 receptor (competition with [3H]-PGE2)
Set-up: expressed in transfected cells; host or cells: CHO-K1 cells, membrane fraction
Settings: [3H]-PGE2 competition; averages of a number of experiments; read-out: pIC50 value, binding assay for the human prostanoid EP1 receptor (converted)
Description: Competition assay using [^3H]-PGE2.
Compound potencies are determined using a radioligand binding assay. In this assay compound potencies are determined from their ability to compete with tritiated prostaglandin E2 ([^3H]-PGE2) for binding to the human EP1 receptor.
This assay utilises Chinese hamster ovary-K1 (CHO-K1) cells into which a stable vector containing the EP1 cDNA has previously been transfected. Cells are cultured in suitable flasks containing culture medium such as DMEM:F-12 supplemented with 10% v/v foetal calf serum, 2 mM L-glutamine, 0.25 mg/ml geneticin, 10 μg/ml puromycin and 10 μM indomethacin.
Cells are detached from the culture flasks by incubation in calcium and magnesium free phosphate buffered saline containing 1 mM disodium ethylenediaminetetraacetic acid (Na2EDTA) and 10 μM indomethacin for 5 min. The cells are isolated by centrifugation at 250×g for 5mins and suspended in an ice cold buffer such as 50 mM Tris, 1 mM Na2EDTA, 140 mM NaCl, 10 μM indomethacin (pH 7.4). The cells are homogenised using a Polytron tissue disrupter (2×10 s burst at full setting), centrifuged at 48,000×g for 20mins and the pellet containing the membrane fraction is washed (optional) three times by suspension and centrifugation at 48,000×g for 20mins. The final membrane pellet is suspended in an assay buffer such as 10 mM 2-[N-morpholino]ethanesulphonic acid, 1 mM Na2EDTA, 10 mM MgCl2 (pH 6). Aliquots are frozen at […] until required.
For the binding assay the cell membranes, competing compounds and [^3H]-PGE2 (3 nM final assay concentration) are incubated in a final volume of 100 μl for 30 min at 30° C. All reagents are prepared in assay buffer. Reactions are terminated by rapid vacuum filtration over GF/B filters using a Brandell cell harvester. The filters are washed with ice cold assay buffer, dried and the radioactivity retained on the filters is measured by liquid scintillation counting in Packard TopCount scintillation counter.
The data are analysed using non linear curve fitting techniques to determine the concentration of compound producing 50% inhibition of specific binding (IC50).

`O=C(O)Cc1csc(-c2cc(Cl)ccc2OCc2c(F)cc(F)cc2F)n1` [Example 64, Sodium [2-(5-chloro-2-{[(2,4,6-trifluorophenyl)methyl]oxy}phenyl)-1,3-thiazol-4-yl]acetate] and `O=C(O)Cc1csc(-c2cc(Cl)ccc2OCc2c(F)ccc(F)c2F)n1` [Example 67, Sodium [2-(5-chloro-2-{[(2,3,6-trifluorophenyl)methyl]oxy}phenyl)-1,3-thiazol-4-yl]acetate] cannot be ordered by IC50: ≤ 1000 nM for the first, ≤ 1000 nM for the second.

`O=C(O)c1csc(Cc2cc(Cl)ccc2OCc2ccccc2)n1` [Example 9, 2-({5-chloro-2-[(phenylmethyl)oxy]phenyl}methyl)-1,3-thiazole-4-carboxylicacid] and `O=C(O)c1nc(Cc2cc(Cl)ccc2OCc2ccccc2)cs1` [Example 76, Sodium 4-({5-chloro-2-[(phenylmethyl)oxy]phenyl}methyl)-1,3-thiazole-2-carboxylate] cannot be ordered by IC50: ≤ 31.6 nM for the first, ≤ 31.6 nM for the second.

`O=C(O)c1csc(Cc2cc(C(F)(F)F)ccc2OCC2CCC2)n1` [Example 43, Sodium 2-{[2-[(cyclobutylmethyl)oxy]-5-(trifluoromethyl)phenyl]methyl}-1,3-thiazole-4-carboxylate] and `CC(C)COc1ccc(C(F)(F)F)cc1Cc1nc(C(=O)O)cs1` [Example 44, Sodium 2-{[2-[(2-methylpropyl)oxy]-5-(trifluoromethyl)phenyl]methyl}-1,3-thiazole-4-carboxylate] cannot be ordered by IC50: ≤ 31.6 nM for the first, ≤ 31.6 nM for the second.

`NC(=O)c1nc(Cc2cc(Cl)ccc2OCc2c(F)cc(F)cc2F)cs1` [Example 4, 4-[(5-chloro-2-{[(2,4,6-trifluorophenyl)methyl]oxy}phenyl)methyl]-1,3-thiazole-2-carboxamide] and `NC(=O)c1nc(Cc2cc(Cl)ccc2OCc2ccc(F)cc2F)cs1` [Example 1, 4-[(5-chloro-2-{[(2,4-difluorophenyl)methyl]oxy}phenyl)methyl]-1,3-thiazole-2-carboxamide] cannot be ordered by IC50: ≤ 1000 nM for the first, ≤ 1000 nM for the second.

`O=C(O)c1csc(Cc2cc(C(F)(F)F)ccc2OCc2ccc(Br)cc2)n1` [Example 31, Sodium 2-{[2-{[(4-bromophenyl)methyl]oxy}-5-(trifluoromethyl)phenyl]methyl}-1,3-thiazole-4-carboxylate] and `O=C(O)c1csc(Cc2cc(C(F)(F)F)ccc2OCc2ccccc2Br)n1` [Example 28, Sodium 2-{[2-{[(2-bromophenyl)methyl]oxy}-5-(trifluoromethyl)phenyl]methyl}-1,3-thiazole-4-carboxylate] cannot be ordered by IC50: ≤ 31.6 nM for the first, ≤ 1000 nM for the second.

`Clc1ccc(OCc2ccccc2)c(Cc2nc(-c3nnn[nH]3)cs2)c1` [Example 109, 5-[2-({5-Chloro-2-[(phenylmethyl)oxy]phenyl}methyl)-1,3-thiazol-4-yl]-1H-tetrazole] and `Clc1ccc(OCc2ccccc2)c(Cc2nc(-c3nnc[nH]3)cs2)c1` [Example 156, 3-[2-({5-Chloro-2-[(phenylmethyl)oxy]phenyl}methyl)-1,3-thiazol-4-yl]-1H-1,2,4-triazole] cannot be ordered by IC50: ≤ 31.6 nM for the first, ≤ 1000 nM for the second.

`O=C(O)c1csc(Cc2cc(Br)ccc2OCc2c(F)ccc(F)c2F)n1` [Example 59, Sodium 2-[(5-bromo-2-{[(2,3,6-trifluorophenyl)methyl]oxy}phenyl)methyl]-1,3-thiazole-4-carboxylate] and `O=C(O)c1csc(Cc2cc(Cl)ccc2OCc2ccc(F)c(F)c2F)n1` [Example 20, Sodium 2-[(5-chloro-2-{[(2,3,4-trifluorophenyl)methyl]oxy}phenyl)methyl]-1,3-thiazole-4-carboxylate] cannot be ordered by IC50: ≤ 31.6 nM for the first, ≤ 1000 nM for the second.

`NC(=O)c1nc(Cc2cc(Cl)ccc2OCc2ccccc2Cl)cs1` [Example 3, 4-[(5-chloro-2-{[(2-chlorophenyl)methyl]oxy}phenyl)methyl]-1,3-thiazole-2-carboxamide] and `NC(=O)c1nc(Cc2cc(Cl)ccc2OCc2ccc(F)cc2Cl)cs1` [Example 6, 4-[(5-chloro-2-{[(2-chloro-4-fluorophenyl)methyl]oxy}phenyl)methyl]-1,3-thiazole-2-carboxamide] cannot be ordered by IC50: ≤ 1000 nM for the first, ≤ 1000 nM for the second.

`O=C(O)c1nc(Cc2cc(Cl)ccc2OCc2ccc(Cl)cc2)cs1` [Example 86, Sodium 4-[(5-chloro-2-{[(4-chlorophenyl)methyl]-oxy}phenyl)methyl]-1,3-thiazole-2-carboxylate] and `NC(=O)c1nc(Cc2cc(Cl)ccc2OCc2ccc(Cl)cc2)cs1` [Example 5, 4-[(5-chloro-2-{[(4-chlorophenyl)methyl]oxy}phenyl)methyl]-1,3-thiazole-2-carboxamide] cannot be ordered by IC50: ≤ 31.6 nM for the first, ≤ 1000 nM for the second.

`CC(C)COc1ccc(Cl)cc1Cc1nc(-c2nc3ccc(CN4CCCC4)cc3[nH]2)cs1` [Example 123, 2-[2-({5-Chloro-2-[(2-methylpropyl)oxy]phenyl}-methyl)-1,3-thiazol-4-yl]-5-(1-pyrrolidinylmethyl)-1H-benzimidazole hydrochloride] and `CC(C)COc1ccc(Cl)cc1Cc1nc(C(=O)O)cs1` [Example 23, Sodium 2-({5-chloro-2-[(2-methylpropyl)oxy}phenyl}methyl)-1,3-thiazole-4-carboxylate] cannot be ordered by IC50: ≤ 31.6 nM for the first, ≤ 31.6 nM for the second.

`CC(C)COc1ccc(Cl)cc1C(F)(F)c1nc(C(=O)O)cs1` [Example 82, Sodium 2-[{5-chloro-2-[(2-methylpropyl)oxy]phenyl}(difluoro)methyl]-1,3-thiazole-4-carboxylate] and `O=C(O)c1csc(Cc2cc(Cl)ccc2OCc2cc(F)c(F)cc2F)n1` [Example 18, Sodium 2-[(5-chloro-2-{[(2,4,5-trifluorophenyl)methyl]oxy}phenyl)methyl]-1,3-thiazole-4-carboxylate] cannot be ordered by IC50: ≤ 1000 nM for the first, ≤ 31.6 nM for the second.

`O=C(O)c1coc(Cc2cc(Cl)ccc2OCc2ccccc2)n1` [Example 78, Sodium 2-({5-chloro-2-[(phenylmethyl)oxy]phenyl}methyl)-1,3-oxazole-4-carboxylate] and `O=C(O)c1csc(Nc2cc(Cl)ccc2OCc2ccccc2)n1` [Example 75, Sodium 2-({5-chloro-2-[(phenylmethyl)oxy]phenyl}amino)-1,3-thiazole-4-carboxylate] cannot be ordered by IC50: ≤ 31.6 nM for the first, ≤ 1000 nM for the second.

`O=C(O)c1nc(Cc2cc(Cl)ccc2OCc2ccc(F)cc2Cl)cs1` [Example 87, Sodium 4-[(5-chloro-2-{[(2-chloro-4-fluorophenyl)methyl]oxy}-phenyl)methyl]-1,3-thiazole-2-carboxylate] and `O=C(O)c1nc(Cc2cc(Cl)ccc2OCc2ccc(F)cc2)cs1` [Example 77, Sodium 4-[(5-chloro-2-{[(4-fluorophenyl)methyl]oxy}phenyl)methyl]-1,3-thiazole-2-carboxylate] cannot be ordered by IC50: ≤ 31.6 nM for the first, ≤ 31.6 nM for the second.

`O=C(O)Cc1csc(-c2cc(Cl)ccc2OCc2cc(F)c(F)cc2F)n1` [Example 68, Sodium [2-(5-chloro-2-{[(2,4,5-trifluorophenyl)methyl]oxy}phenyl)-1,3-thiazol-4-yl]acetate] and `O=C(O)Cc1csc(-c2cc(Cl)ccc2OCc2ccc(F)cc2F)n1` [Example 63, Sodium [2-(5-chloro-2-{[(2,4-difluorophenyl)methyl]oxy}phenyl)-1,3-thiazol-4-yl]acetate] cannot be ordered by IC50: ≤ 1000 nM for the first, ≤ 1000 nM for the second.

`O=C(O)c1csc(Cc2cc(Cl)ccc2OCc2ccc(Br)cc2F)n1` [Example 22, Sodium 2-[(2-{[(4-bromo-2-fluorophenyl)methyl]oxy}-5-chlorophenyl)methyl]-1,3-thiazole-4-carboxylate] and `O=C(O)c1csc(Cc2cc(Br)ccc2OCc2ccc(F)cc2Cl)n1` [Example 61, Sodium 2-[(5-bromo-2-{[(2-chloro-4-fluorophenyl)methyl]oxy}phenyl)methyl]-1,3-thiazole-4-carboxylate] cannot be ordered by IC50: ≤ 31.6 nM for the first, ≤ 31.6 nM for the second.

`O=C(O)c1csc(Cc2cc(C(F)(F)F)ccc2OCc2cccc(F)c2F)n1` [Example 34, Sodium 2-{[2-{[(2,3-difluorophenyl)methyl]oxy}-5-(trifluoromethyl)phenyl]methyl}-1,3-thiazole-4-carboxylate] and `O=C(O)c1csc(Cc2cc(Br)ccc2OCc2ccc(Cl)cc2)n1` [Example 56, Sodium 2-[(5-bromo-2-{[(4-chlorophenyl)methyl]oxy}phenyl)methyl]-1,3-thiazole-4-carboxylate] cannot be ordered by IC50: ≤ 31.6 nM for the first, ≤ 31.6 nM for the second.
